# Test results: patent publication US7056679B2, “Target specific screening and its use for identifying target binders” (Antyra, Inc., priority 2001, dated 2006)
# What was measured:
# [1] = system: lactate dehydrogenase (LDH); experiment: ELISA analysis of phage on LDH (irrelevant, non-specific target); format: binding; details: peptide binding to LDH polypeptide (non-specific binding); phage ELISA units read at 405 nm
# Procedure: (§1) For analysis of individual target binders, colonies were picked and phage prepared as described above using helper phage, M13KO7. Ninety-six-well microtiter plates were coated with 500 ng/well of specific target protein, 500 ng/well lactate dehydrogenase (LDH) irrelevant or non-specific target, 500 ng/well of positive control antibody raised against ETAG, and negative control of non-fat milk powder-PBS 2% at 4° C. overnight. Plates were then blocked with 350 microliters/well PBS containing 2% non-fat milk for 1 hr at room temperature. One hundred microliters per well of phage from isolated clones were added and plates were incubated at room temperature for 2 hr after centrifuging samples for 20 minutes at 3500 rpm at 4° C. The phage solution was then removed, and the wells were washed three times with PBS at room temperature. Antibody raised against M13 conjugated to horseradish peroxidase (Pharmacia) was diluted 1:3000 in PBS-Tween and added to each well (100 μl/well). Incubation was for 1 hr at room temperature, followed by washing with PBS-(0.5%) Tween 3 times as described. Color was developed by addition of ABTS solution (100 μl/well; Boehringer, Indianapolis, Ind.). Plates were analyzed at 405 nm. A clone was considered “positive” if the A405 of the well was ≧2-fold over background.
# [2] = molecular target: T1, DGI-2 (Homo sapiens, UniProt Q15004); experiment: ELISA analysis of phage on DGI-2 polypeptide (specific binding); details: for DGI-2 (OD): binding to DGI-2 polypeptide (specific binding), phage ELISA units read at 405 nm; for DGI-2/LDH (OD): ratio of specific binding to non-specific binding
# T1 construct: encompassed the entire DGI-2 open reading frame (ORF); His-tag of vector pIVEX2.3-MCS (inferred from the vector and from the reverse primer lacking a stop codon); made in house; host or cells: cell-free in vitro translation (Rapid Translation System RTS, Roche; E. coli lysate)
# T1 sequence (Q15004 1-111): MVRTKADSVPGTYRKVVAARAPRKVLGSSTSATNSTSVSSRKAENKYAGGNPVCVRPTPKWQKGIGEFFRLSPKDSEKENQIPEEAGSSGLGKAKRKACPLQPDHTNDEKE
# Procedure: To verify that the selected target binders bound to DGI-2, Elisa assays were performed with recombinant DGI-2. DGI-2 was subcloned and expressed using conventional methods as described below.
# Protein yields were satisfactory, but most of protein was found in inclusion bodies. Next, DGI-2 was expressed using an in vitro translation system (Rapid Translation System RTS 5000, Roche Diagnostics GmbH, Mannheim Germany). For this system, the DGI-2 ORF was cloned into the pIVEX2.3-MCS vector (Roche Diagnostics) using restriction sites Nde I and Hind III, which were added to DGI-2 by PCR. […] The primers used for the PCR amplification were as follows: […]
# as §1
# [3] = system: E-tag antibody; experiment: ELISA analysis of phage on antibody raised against ETAG (positive control); details: peptide binding to E-tag antibody; phage ELISA units read at 405 nm
# Procedure: as §1
Substance,LDH (OD) [1] [OD],DGI-2 (OD) [2] [OD],DGI-2/LDH (OD) [2],ETAG (OD) [3] [OD]
LGRIVRPCVVRLCGGV##GV (LGRIVRPCVVRLCGGVGV; DGI-2-20F-PP-G10; listed as Escherichia coli),1.2,2.5,2.0,30.1
LGRTFVWGTCLHLSVSRFGH (DGI-2-20F-PP-C3; listed as Escherichia coli),1.0,5.3,5.1,39.9
LHFGSVMGWRPPGSLWSRPFGQVHPRSWSGS (DGI-2-40F-3-D11; listed as Escherichia coli),1.3,3.8,2.9,10.5
LHRLGQSMGGTLDHLQGWGV (DGI-2-20R-4-E5; listed as Escherichia coli),1.1,1.2,1.1,17.9
LLLPVRWRDAQPRSLLMEWI (DGI-2-20F-PP-F8; listed as Escherichia coli),1.1,2.0,1.9,7.6
LPQSRWLSEAWASWVDGVVD (DGI-2-20F-4-F9; listed as Escherichia coli),1.0,5.6,5.9,19.6
LQIVRPAGMTKMPGQVGYYIG (LQIVRPAGWKMPGQVGYYIG; DGI-2-20R-3-A9; listed as Escherichia coli),1.0,3.4,3.4,14.3
LSHPMSPLRAASQMALTQGV (DGI-2-20R-4-H7; listed as Escherichia coli),1.2,3.1,2.6,14.1
LSLEGGWMWDTKGGDGGSAQ (DGI-2-20R-4-F93; listed as Escherichia coli),1.1,9.0,8.4,19.5
LSLLSVVVRSMGASAPQRQV (DGI-2-20F-3-A7; listed as Escherichia coli),0.9,2.1,2.4,7.0
LSRIWRGVIESAREVESRGI (DGI-2-20F-3-B1; listed as Escherichia coli),0.9,1.2,1.2,11.4
LSVFRPGQFPHVGARGVSRT (DGI-2-20R-4-G32; listed as Escherichia coli),1.1,1.4,1.2,11.0
LTPYSLARSWLSGRPSTGAT (DGI-2-20F-3-C12; listed as Escherichia coli),1.0,3.2,3.1,15.1
LTWGPQFGSLQVYSRHRGLP (DGI-2-20R-4-E4; listed as Escherichia coli),1.2,1.6,1.3,18.1
LVIGQRSFLSACSLFDGFCV (DGI-2-20R-4-H814; listed as Escherichia coli),1.1,9.5,9.0,13.5
LVIQCSASVVACDLYWNYVGCLAAG (DGI-2-20C-3-D12; listed as Escherichia coli),1.0,1.1,1.1,3.6

Substance,LDH (OD) [1] [OD],DGI-2 (OD) [2] [OD],DGI-2/LDH (OD) [2],ETAG (OD) [3] [OD]
LWLPCGLLVRPAQFYFYFSPLRHFLSSSVGSLSFPLSLLV (DGI-2-40F-3-B4; listed as Escherichia coli),0.8,1.0,1.1,1.5
LWRRWSEGQLLGDGELRGDG (DGI-2-20R-3-B52; listed as Escherichia coli),1.0,8.7,8.4,15.8
MAVLPAARDFGGVVQGGVSG (DGI-2-20F-3-C2; listed as Escherichia coli),1.0,1.3,1.3,11.5
MFQDVACDLWHSVRCLRRDV (DGI-2-20R-3-B3; listed as Escherichia coli),1.0,4.9,4.8,16.1
MGADTCMGGKMPFDQMFGAV (DGI-2-20F-PP-E10; listed as Escherichia coli),1.2,2.0,1.7,44.6
MGQGFHYNRQPYMSHQCYAFTFSTPFLDGDRIPHGVSRGL (DGI-2-40F-3-D1; listed as Escherichia coli),0.8,0.8,1.0,4.1
MGSLGPFGNTNSLASGIGSVRNRPLLPLHGSP [DGI-2-40F-3-D72],1.1,3.1,2.8,14.0
MGVVLECEGGWSIPGQTCYF (DGI-2-20R-3-C7; listed as Escherichia coli),1.0,5.1,5.1,18.0
MQAASTLSTYMGAIRMGYPILHWDRGGVQRVDPGLYRGRV (DGI-2-40F-3-B10; listed as Escherichia coli),1.0,1.3,1.4,4.8
MSSTAWTDRILQRGIGLGPV (DGI-2-20R-4-F1212; listed as Escherichia coli),1.2,4.0,3.3,9.8
MSTLQGPGHLFQMLRRASLG (DGI-2-20R-4-H12; listed as Escherichia coli),1.3,3.7,2.8,10.9
PAMGHCMQVLGPVLEGRSRDQVGR (DGI-2-20R-4-G6; listed as Escherichia coli),1.1,1.6,1.4,11.5
PKDGAAFKGSDFIQGGQTVMERAPALWWRDGGGQWEAPST (DGI-2-40F-3-B72; listed as Escherichia coli),0.7,1.0,1.3,10.4
PVYRVAMCRISVGCSAGAWF (DGI-2-20F-PP-C12; listed as Escherichia coli),0.9,2.5,2.9,36.4
QGSAHVVRPPGVYDVPWKVGMFFHPQNWPNSWGRAYFRSG (DGI-2-40F-3-D12; listed as Escherichia coli),1.0,2.3,2.5,7.3
